Results from publication PMC5128008, “Antimicrobial activity and stability of the D-amino acid substituted derivatives of antimicrobial peptide polybia-MPI” (AMB Express, 2016).
≈ marks a conversion by molar mass, not a printed value. Where a SMILES comes first, the peptide text is derived from it. Where no end group is shown, it is not given here. [ ]: non-standard residue; d: D form.

Assays:
human erythrocytes = assay: Hemolytic activity; format: cell-based; details: 37 °C, Fig. 2; for hemolytic activity under the concentration of 100 μM: 8% human erythrocytes in PBS pH 7.4, 60 min, hemoglobin release at 490 nm; for hemolytic activity compared to polybia-MPI: 8% human erythrocytes in PBS pH 7.4, peptide up to 256 µM, 60 min, 490 nm
Procedure: Fresh human blood was collected in heparinized-tube, diluted in cold PBS (pH 7.4) and centrifuged at 800g for 10 min to remove the serum and buffy coat. The erythrocytes were washed twice time and re-suspended in the same buffer to a final erythrocyte concentration of 8% for the hemolysis assay (Sharma and Sharma [2001]). The RBC (red blood cell) suspension of 100 µl was transferred into a 96 well microtiter plate. Peptides were dissolved in PBS (pH 7.4) of different concentrations from 2 to 256 µM were incubated with 8% erythrocytes suspension for 60 min at 37 °C. Subsequently, the plate was centrifuged at 1200×g for 10 min. Then, aliquots of 100 µl supernatant were retransferred to an another 96-well plates and measured to monitor the release of hemoglobin by microplate reader (Bio-Rad 680) at 490 nm, which indicated RBC membrane damage. 100 µl RBC (red blood cell) suspension with 0.2% Triton-X 100 or PBS was used as positive and negative control, respectively. Hemolysis rate was determined as below: Hemolysisrate(%)=(A-A2)/(A1-A2)×100% where A is the absorbance of indicator mixtures with different factors, A1 and A2 are the positive control, and the negative control, respectively (Kim et al. [2011]).
Fig. 2 The hemolytic activity of polybia-MPI and synthetic D-MPI and D-lys-MPI against human erythrocytes were determined. Fresh human blood was collected and centrifuged to remove the serum and buffy coat, and re-suspended to a final erythrocyte concentration of 8% erythrocytes suspension. Then, peptides of different concentrations from 2 to 256 μM were incubated with erythrocytes suspension for 60 min. Subsequently, the erythrocytes suspension was centrifuged and measured to monitor the release of hemoglobin at 490 nm

trypsin [1] = assay: Viability assay: antimicrobial activity against E. coli after trypsin treatment (Fig. 5); format: in vitro ADME; details: 37 °C, then E. coli at MIC, OD 600 nm
Procedure: Viability assay different concentration of trypsin (from 0.0002 to 2 mg/ml) incubated with peptides for 1 or 6 h at 37 °C, and the enzymatic activity was terminated by additional heat inactivation at 60 °C for 20 min. Then the trypsin treated peptides were incubated with Escherichia coli (ATCC25922) at the concentration of MIC in 96-wells microtiter plate overnight at 37 °C (Choi et al. [2013]). The growth inhibitory effect was determined by measuring the absorbance at 600 nm. Then we took 100 μl samples of 6 h from each well with the concentration of 0.2 mg/ml and plated onto MH broth ager after dilution. After overnight incubation at 37 °C, photos of plates were photographed and the colonies on the plate were counted.

chymotrypsin [2] = assay: Viability assay: antimicrobial activity against E. coli after chymotrypsin treatment (Fig. 5); format: in vitro ADME; details: 37 °C, then E. coli at MIC, OD 600 nm
trypsin [3] = assay: Radial diffusion assay after trypsin pre-incubation; format: in vitro ADME; details: pre-incubation 4 h 37 °C, plates 18–24 h 37 °C, Fig. 6
Procedure: (§1) The enzymatic stability of Polybia-MPI and its analogues was evaluated by a modification of the sensitive radial diffusion assay. The bacteria were cultured until the optical density at 600 nm (OD600) of an aliquot reached 0.5. One milliliter of the bacteria suspension was added to 100 ml of previously autoclaved, warm Mueller–Hinton agar (MHA)/Sabouraud dextrose agar. The medium were poured into layer of a 5 mm deep. Wells were performed with a sterile plastic bore of a 3-mm-diameter gel punch. Following the addition of 20 µl pre-incubated mixture of peptides and different concentrations of trypsin or chymotrypsin for 4 h into wells. The plates were incubated at 37 °C for 18 to 24 h. An equal volume of 20 µl mixture had no trypsin or chymotrypsin was used as the control. The size of the clear zones surrounding each well as indicators of the enzymatic stability of Polybia-MPI and its analogues.
(§2) Fig. 6 The viability of bacteria/fungi after incubation with peptides in the presence/absence of enzyme. Each peptide was pre-incubated with different concentrations of chymotrypsin (a) or trypsin (b) at 37 °C for 4 h. Then the samples were heat inactivated and poured into wells of plates. The plates were incubated at 37 °C for 18–24 h. Controls were without trypsin or chymotrypsin

chymotrypsin [4] = assay: Radial diffusion assay after chymotrypsin pre-incubation; format: in vitro ADME; details: pre-incubation 4 h 37 °C, plates 18–24 h 37 °C, Fig. 6
Procedure: as §1, §2

trypsin [5] = assay: RP-HPLC analysis of stability to trypsin; format: in vitro ADME; details: peptide 10 mM, trypsin 0.2 mg/ml, 37 °C, 0 and 360 min, TFA/acetonitrile precipitation, Fig. 7
Procedure: The stability of polybia-MPI and its analogues was assayed with trypsin or chymotrypsin in a volume ratio of 1:15 (peptide:trypsin) (Choi et al. [2013]; Hamamoto et al. [2002]; Molhoek et al. [2011]). Peptides at the concentration of 10 mM were incubated with trypsin or chymotrypsin (0.2 mg/ml) at 37 °C. 40 µl samples of the incubations were taken for the time of 0 and 360 min, respectively. Then, the samples were mixed with 80 µl of 15% trifluoroacetic acid (TFA) and 80 µl acetonitrile which incubated at 4 °C for at least 15 min to precipitate proteins. The supernatant was collected of each sample after centrifugation at 13,000 rpm for 10 min and were detected with reverse phase high performance liquid chromatography (RP-HPLC) analysis.
Fig. 7 HPLC analysis of the susceptibility of polybia-MPI, D-MPI and D-lys-MPI to trypsin and chymotrypsin. Peptides at the concentration of 10 mM were incubated with trypsin or chymotrypsin at 37 °C. At the determined time interval, samples were taken and mixed with trifluoroacetic acid (TFA) and acetonitrile to precipitate proteins, respectively. Then the samples were detected with reverse phase high performance liquid chromatography (RP-HPLC) analysis

[6] = RP-HPLC analysis of stability to proteases in human serum; format: in vitro ADME; details: method details not given
Description: In the present study, HPLC was used to determine the stability of polybia-MPI, D-lys-MPI and D-MPI to trypsin, chymotrypsin and proteases in human serum.

(ATCC 700603) = details: ATCC 700603, 18 h
trypsin [7] = assay: Bactericidal activity after trypsin treatment, colony plates (Fig. 4); details: peptide with trypsin 4 h 37 °C, enzyme heat inactivated at 60 °C, E. coli co-incubated 3 h, plated 24 h
Procedure: To test the stability of polybia-MPI and D-MPI, first 1 mg/l of the peptides were incubated with trypsin and chymotrypsin for 4 h for degradation. After the enzyme was heat inactivated at 60 °C for 15 min, E. coli was added and co-incubated for 3 h. Then, the treated bacteria were coated to plate and incubated at 37 °C for 24 h.
Peptides were incubated with the same volume of PBS (Left) or trypsin (Right) at 37 °C for 4 h. The enzyme was heat inactivated at 60 °C for 20 min, and E. coli suspension was added and co-incubated for 3 h. Then, the mixtures were plated onto MH broth ager and incubated for 18–24 h. Pictures of each plate were photographed

CC[C@@H](C)[C@@H](N)C(=O)N[C@H](CC(=O)O)C(=O)N[C@H](Cc1c[nH]c2ccccc12)C(=O)N[C@H](CCCCN)C(=O)N[C@H](CCCCN)C(=O)N[C@H](CC(C)C)C(=O)N[C@H](CC(C)C)C(=O)N[C@H](CC(=O)O)C(=O)N[C@H](C)C(=O)N[C@H](C)C(=O)N[C@H](CCCCN)C(=O)N[C@H](CCC(N)=O)C(=O)N[C@@H](C(=O)N[C@H](CC(C)C)C(N)=O)[C@H](C)CC [D-MPI] (H-[dI][dD][dW][dK][dK][dL][dL][dD][dA][dA][dK][dQ][dI][dL]-NH2)
hemolytic activity under the concentration of 100 μM (human erythrocytes): no significant hemolytic activity | hemolytic activity compared to polybia-MPI (human erythrocytes): decreased | antimicrobial activity after incubation with trypsin (trypsin [1]; 2 mg/ml trypsin, 6 h): retained its antimicrobial activity | antimicrobial activity after incubation with chymotrypsin (chymotrypsin [2]; 2 mg/ml chymotrypsin, 6 h): retained its antimicrobial activity | inhibition zone diameters after incubation with trypsin (trypsin [3]; 2 mg/ml trypsin): almost the same as control | inhibition zone diameters after incubation with chymotrypsin (chymotrypsin [4]; 2 mg/ml chymotrypsin): almost the same as control | susceptibility to trypsin by HPLC profile (trypsin [5]): not or only partly degraded | susceptibility to proteases in human serum by HPLC profile [6]: not or only partly degraded | MBC/MFC ((ATCC 700603)): 128 µM (≈ 212 µg/mL) | E. coli colonies on plate after treatment with trypsin-incubated peptide (trypsin [7]): no colony

CC[C@H](C)[C@H](N)C(=O)N[C@@H](CC(=O)O)C(=O)N[C@@H](Cc1c[nH]c2ccccc12)C(=O)N[C@H](CCCCN)C(=O)N[C@H](CCCCN)C(=O)N[C@@H](CC(C)C)C(=O)N[C@@H](CC(C)C)C(=O)N[C@@H](CC(=O)O)C(=O)N[C@@H](C)C(=O)N[C@@H](C)C(=O)N[C@H](CCCCN)C(=O)N[C@@H](CCC(N)=O)C(=O)N[C@H](C(=O)N[C@@H](CC(C)C)C(N)=O)[C@@H](C)CC [D-lys-MPI] (H-IDW[dK][dK]LLDAA[dK]QIL-NH2)
hemolytic activity under the concentration of 100 μM (human erythrocytes): no significant hemolytic activity | hemolytic activity compared to polybia-MPI (human erythrocytes): abrogated | susceptibility to trypsin by HPLC profile (trypsin [5]): not or only partly degraded | susceptibility to proteases in human serum by HPLC profile [6]: not or only partly degraded | MBC/MFC ((ATCC 700603)): >256 µM

IDWKKLLDAAKQIL-NH2 [Polybia-MPI]
hemolytic activity under the concentration of 100 μM (human erythrocytes): no significant hemolytic activity | trypsin concentration that totally inhibits the antimicrobial activity of the peptide (trypsin [1]; incubation 1 h): 0.002 mg/mL | chymotrypsin concentration that totally inhibits the antimicrobial activity of the peptide (chymotrypsin [2]; incubation 1 h): 0.002 mg/mL | inhibition zone diameters after incubation with trypsin (trypsin [3]; 0.02–2 mg/ml trypsin): decreased even disappeared | inhibition zone diameters after incubation with chymotrypsin (chymotrypsin [4]; 0.02–2 mg/ml chymotrypsin): decreased even disappeared | susceptibility to trypsin by HPLC profile (trypsin [5]): susceptible | susceptibility to proteases in human serum by HPLC profile [6]: susceptible | MBC/MFC ((ATCC 700603)): 256 µM | E. coli colonies on plate after treatment with trypsin-incubated peptide (trypsin [7]): many colonies
